From US6702996B1, “Method for investigating the suitability of a material as a medicament” (Aventis Pharma Deutschland GmbH, priority 1999, dated 2004)

Test system: C. elegans
Assay: Retraction reflex of nematodes to a local thermal stimulus (laser, head region)
Assay type: in vivo, Caenorhabditis elegans
Settings: for effect on the reflex behaviour of the nematode: nematodes exposed to the substance, local thermal stimulus
Description: The inventors' experiments have thus shown that the use of C. elegans as an animal model for studying materials in terms of their suitability as medicaments in humans or other mammals allows reliable predictions to be made, especially where the sensation or perception of pain is involved, both in terms of algesic or hyperalgesic effects and in terms of analgesic effects. […] A normal reflex to a thermal stimulus of e.g. 32-40° C. in the head region of the nematode can be described as follows:
I) Rapid reflexive retraction by at least one whole body length and subsequent orientation of the head in another direction.
II) Rapid reflexive retraction, but without backward motion.
The well-fed test animals (C. elegans) (about 100; length about 1.3 mm; diameter 80 μm) were irradiated in the experiments with an infrared laser (685±0.5 nm). The laser beam was always focused on a spot of diameter 30 μm in the head region of the animal, a local warming to 33.5±1° C. being observed on an agar surface. To examine the animals' behaviour in greater detail, they were exposed to a nociceptive stimulus, after which they were incubated in capsaicin at concentrations varying from 1 to 100 μM. A strong reaction was still being observed 1 h after incubation.

## Oc1cc2c(cc1O)CN(C(=S)NCCc1ccc(Cl)cc1)CCC2 [capzazepine]
  effect on the reflex behaviour of the nematode: can be influenced

## COc1cc(CNC(=O)CCCC/C=C/C(C)C)ccc1O [capsaicin]
C. elegans mutants whose normal behaviour is that only 70% of the animals react as in I)
  reaction (intensified reflex as in I)) in mutants: observed even more clearly
Incubated in capsaicin 1 to 100 μM, 1 h after incubation, laser warming to 33.5±1° C. in head region, control group 80%
  animals exhibiting a reflex as in I) (rapid reflexive retraction by at least one whole body length): over 90%
  effect on the reflex behaviour of the nematode: can be influenced
